Assay results taken from US6383276B1, “Azomethine compound and oily magenta ink” (Fuji Photo Film Co., Ltd., priority 1999, dated 2002).

Experiments:
[1] = Measurement of solubility in ethyl acetate (Example 6, Comparison Example 1); format: physicochemical; conditions: 25° C. for 20 hours, filtered through 0.2 μm filter, ink concentrated
Description: With respect to each of the azomethine compounds (Ia-6), (Ia-12) and (Ia-14), 600 mg of the compound was placed in a lidded test tube. After 2 ml of ethyl acetate was added, the mixture was treated with an ultrasonic cleaner for 30 minutes. The resultant liquid was heated and stirred at 65° C. for 1 hour, and then cooled to room temperature. After leaving the test tube in a constant temperature bath at 25° C. for 20 hours, solid particles were filtered off with a micro filter having the pore size of 0.2 μm to prepare an oily magenta ink.
Each prepared ink was concentrated to measure the solubility, but solid (crystallite) was not deposited.
With respect to each of the following azomethine compounds (X-1), (X-2), (X-3) and (X-4), 30 mg of the compound was placed in a lidded test tube. After 2 ml of ethyl acetate was added, the mixture was treated with an ultrasonic cleaner for 30 minutes. The resultant liquid was heated and stirred at 65° C. for 1 hour, and then cooled to room temperature. After leaving the test tube in a constant temperature bath at 25° C. for 20 hours, solid particles were filtered off with a micro filter having the pore size of 0.2 μm to prepare an oily magenta ink. [drawing 13]
Each prepared ink was concentrated to measure the solubility.

[2] = Absorption maximum and molar extinction coefficient of ethyl acetate solutions; format: physicochemical; conditions: ethyl acetate solution
Description: With respect to each of the ethyl acetate-base magenta inks [ethyl acetate solutions of the compounds (Ia-1), (Ia-6), (Ia-12), (Ia-13), (Ia-14) and (Ia-15)] prepared in Example 4, the absorption maximum (λmax) and molar extinction coefficient (ε) were measured.
With respect to each of the ethyl acetate-base magenta inks [ethyl acetate solutions of the compounds (X-1), (X-2), (X-3) and (X-4)] prepared in Comparison Example 1, the absorption maximum (λmax) was measured.

Compound	Solubility [1]	Absorption maximum (λmax) ([2]; Table 1)	Molar extinction coefficient (ε) ([2]; Table 1)	Absorption maximum (λmax) ([2]; Table 2)
CCCCCCCCCCCCCCOC(=O)CCC(=O)Nc1ccc(-c2nc3n(n2)N=C(C(C)(C)C)C3=Nc2ccc(N(CCC#N)CCCC)cc2)cc1 [Ia-12]	30.1 wt. % or more	519 nm	4.8 × 10^4	519 nm
CCN(CCC#N)c1ccc(N=C2C(C)=Nn3nc(C(C)CNC(=O)CCCOc4ccc(OC)cc4)nc32)cc1 (stereo not drawn) [X-3, reference compound]	1.72 wt. %	–	–	511 nm
COc1ccc(OCCN(CCC#N)c2ccc(N=C3C(C)=Nn4nc(C(C)CN5C(=O)c6ccccc6C5=O)nc43)cc2)cc1 (stereo not drawn) [X-1, reference compound]	0.18 wt. %	–	–	504 nm
CCCCCCC(Oc1ccc(C(C)(C)CC)cc1C(C)(C)CC)C(=O)NCC(C)c1nc2n(n1)N=C(C)C2=Nc1ccc(N(CC)CCC#N)cc1 (stereo not drawn) [Ia-1]	–	512 nm	5.0 × 10^4	–
CCN(CC)c1ccc(N=C2C(C)=Nn3nc(C(C)CNC(=O)CCCOc4ccc(OC)cc4)nc32)c(C)c1 (stereo not drawn) [X-4, reference compound]	0.63 wt. %	–	–	536 nm
CCCCCCC(Oc1ccc(C(C)(C)CC)cc1C(C)(C)CC)C(=O)Nc1ccc(-c2nc3n(n2)N=C(C(C)(C)C)C3=Nc2ccc(N(CC)CCC#N)cc2)cc1 (stereo not drawn) [Ia-13]	–	517 nm	4.6 × 10^4	–
CCCCCCC(Oc1ccc(C(C)(C)CC)cc1C(C)(C)CC)C(=O)NCC(C)c1nc2n(n1)N=C(C)C2=Nc1ccc(N(CCO)CCC#N)cc1C (stereo not drawn) [Ia-6]	30.2 wt. % or more	522 nm	5.2 × 10^4	522 nm
CCCCCCC(Oc1ccc(C(C)(C)CC)cc1C(C)(C)CC)C(=O)Nc1ccc(-c2nc3n(n2)N=C(C(C)(C)C)C3=Nc2ccc(N(CCO)CCC#N)cc2C)cc1 (stereo not drawn) [Ia-15]	–	532 nm	4.9 × 10^4	–
CCCCCCC(Oc1ccc(C(C)(C)CC)cc1C(C)(C)CC)C(=O)Nc1ccc(-c2nc3n(n2)N=C(C(C)(C)C)C3=Nc2ccc(N(CCC#N)CCCC)cc2)cc1 (stereo not drawn) [Ia-14]	30.1 wt. % or more	520 nm	4.8 × 10^4	520 nm
